Patent US20140243401A1, “METHODS OF SCREENING COMPOUNDS THAT ARE CYTOTOXIC TO TUMOR CELLS AND METHODS OF TREATING TUMOR CELLS USING SUCH COMPOUND” (The Johns Hopkins University, priority 2010, published 2014)
Several values for one entry are separate records, joined by “and”; a condition that tells them apart may be missing. Identical values can stand only once.

Experiments:
[1] = test system: mitochondrial FAS; test: 14C-malonate incorporation into mitochondrial fatty acids, mitochondria isolated from rat liver; format: biochemical; settings: FIG. 3
Method: Mammalian mitochondrial FAS activity may be determined in a variety of ways. For example, [14C]malonate may be added to isolated mitochondria, fatty acids are extracted, and then radioactivity is tested. (See Zhang et al., J. Bio. Chem. 278(41): 40067-40074, 2003; Mikolajczyk, J. and Brody, S., Eur. J. Biochem. 187: 431-437, 1990). The mitochondria are purified using methods known in the art. (See Qiagen's Qproteome Mitochondria Isolation Kit; Methods in Enzymology, Vol. 10, Chapter 11, 1967). To test the inhibition of mmFAS activity, a test compound is added to the reaction mixture. Therefore, a test compound may be screened according the methods described herein as follows: (i) isolating mitochondria; (ii) incubating mitochondria with [14C]malonate with and without a test compound; and (iii) determining the quantity of lipids and/or fatty acids produced. By comparing the amount of product in the presence of the test compound to the amount in its absence, the degree of inhibition can be determined.
Mitochondria from MCF7 cells were prepared following manufacturer's protocol (Mitochondria Isolation Kit, Sigma, Saint Louis, Mo.). Rat liver mitochondria were isolated by homogenization with a tissue homogenizer in H-medium (220 mM mannitol, 70 mM sucrose, 2 mM HEPES, and 0.5 g/L of fatty acid free bovine serum albumin, pH 7.4). The homogenate was centrifuged at 1100 g for 3 min and washed twice with H-medium. The supernatants were pooled and centrifuged at 6800 g for 15 min. The pellet was then rinsed again and centrifuged at 3000 g for 3 min. The mitochondria supernatants were saved. The sediments were resuspended in H-medium and centrifuged at 3000 g for 3 min. The mitochondria supernatants were combined and centrifuged at 20,000 g for 15 min. The resulting mitochondria pellet were rinsed and centrifuged again at 20,000 g for 20 min.
Isolated mitochondria (100-200 μg) were mixed with 50 mM TES-KOH (pH 7.2), 10 mM MgCl2, 0.3 M sorbitol, 0.1% BSA, 1 mM each of ATP, ADP, NADH, NADPH, CoA, DTT and 1 μCi of [2-^14C]malonic acid (50 mCi/mmol) in a total volume of 200 μl. The reaction was performed for 30 min at room temperature. C31, Riv7d or vehicle were added at the beginning of this reaction. At the end of 30 minutes, the mitochondria pellet was separated from supernatant by centrifugation at 14000 rpm for 5 min. After washing with 500 μl of 50 mM TES-KOH (pH 7.2) and 0.3 M sorbitol, the mitochondria were incubated in 200 μl of H2O and 20 μl of 10 M KOH for 15 min at 65° C. Then the samples were added with 40 μl of 5 M H2SO4 and 20 μl of 1 mM palmitic acid (in 1 M acetic acid in isopropanol). The ^14C labeled fatty acids were twice extracted with hexane and sent to scintillation counting after drying.

[2] = test system: MCF7 cells; test: JC-1 staining, mitochondrial membrane potential in MCF7 cells; format: cell-based, human
From the text: JC-1 staining is an indicator of mitochondrial membrane potential; with this assay, mitochondria within cells stained with this fluorescent dye emit a wavelength in the red spectrum when mitochondrial membrane potential is intact. When mitochondria are depolarized, the wavelength of the spectrum emitted changes to green. Therefore, the ratio of red/green fluorescence will give an indication of the intactness of the membrane potential of mitochondria, and thus mitochondrial function.
MCF7 cells were cultured in 24-well plates at 1×10^4 per well and incubated overnight. Following drug inhibition the medium was removed and 1 μg/ml JC-1 (Molecular Probes) in DPBS was added to the cells. Plates were incubated for 30 min at 37° C., and washed two times with DPBS. Fluorescence from each well was measured at 530 nm/590 nm (excitation/emission) and by 485 nm/535 nm (excitation/emission) separately using PerkinElmer Victor 1420. The ratio of red to green fluorescence is a measure of mitochondrial membrane potential and thus mitochondrial function directly.
Mitochondrial membrane polarization was monitored using the procedure described above. Cells were cultured in 24-well plates at 1×10^4 per well and incubated overnight. […] Fluorescence from each well was measured at 530 nm/590 nm (excitation/emission) and by 485 nm/535 nm (excitation/emission) separately using PerkinElmer Victor 1420.

[3] = alamarBlue assay, primary human hepatocytes; format: cell-based; settings: read-out: LC50 (the source's name)
[4] = test system: SKOV3 human ovarian cancer xenograft; test: tumor xenograft size, SKOV3; format: in vivo, Athymic Nude mice
Method: (§1) Xenograft studies were performed using various mmFAS inhibitors disclosed herein. Human cancer xenograft studies are known in the art. (See Pizer et al., Cancer Res. 56:1189-1193, 1996; Pizer et al., Cancer Res. 60: 213-218, 2000; Testa et al., Oncogene 24: 7455-7464, 2005).
(§2) In particular, C31 mouse efficacy studies were conducted in order to evaluate anti-neoplastic activity of C31 in vivo. Athymic Nude mice were implanted with HCT116 human colon, SKOV3 human ovarian or OVCAR3 human ovarian cancer cell lines and were treated when the grown tumor xenografts reached at least 150 to 200 mm^3.^1 ^1 Compounds were solubilized in TEP (80% polyethylene glycol (PEG) 400, 10% ethanol, 10% tween-80) in a volume of 50 μL.

[5] = test system: OVCAR3 human ovarian cancer xenograft; test: tumor xenograft size, OVCAR3; format: in vivo, Athymic Nude mice; settings: Study 1129063207, OVCAR-3, oral b.i.d. 11 days, 50 mg/kg
Method: as §1, §2

In the case of `CCCCCCCCC1(C)SC(=O)C=C1OCC(=O)Nc1ccc(Cl)cc1` (centres unmarked) [Compound C31], the “IC50, inhibition of mitochondrial FAS (14C-malonate incorporation)” value ([1]; isolated mitochondria) is reported as “less than 4 μg per mL”, the “effect on 14C-malonate incorporation into mitochondrial fatty acids” value ([1]; mitochondria isolated from rat liver) is reported as “dose-dependent inhibitory effect” and the “mitochondrial membrane potential (JC-1 staining)” value ([2]; MCF7, standard conditions, FIGS. 6, 7) is reported as “rapid and profound effect on altering mitochondrial membrane potential”. For the same molecule, the “mitochondrial membrane polarization (JC-1 staining)” value ([2]; MCF7, varying glucose and oxygen, FIG. 11) was “reductions in mitochondrial membrane polarization”, the CC50 [3] was 225 µg/mL and 562 µM and the “Average Tumor Size Endpoint (% Change)” value ([4]; Study 11007, SKOV-3, oral b.i.d. 11 days, 50 mg/kg) was −78 % Change. The “Average Tumor Size Endpoint (% Change)” value ([4]; Study 52307, SKOV-3, oral b.i.d. 15 days, 50 mg/kg) was −75 % Change, the “Average Tumor Size Endpoint (% Change)” value ([4]; Study 121306, SKOV-3, IP b.i.d. 12 days, 10 mg/kg) was “+179 % Change” and the “Average Tumor Size Endpoint (% Change)” value ([4]; Study 121306, SKOV-3, IP b.i.d. 12 days, 50 mg/kg) was −78 % Change. The “Average Tumor Size Endpoint (% Change)” value ([4]; Study 121306, SKOV-3, IP b.i.d. 12 days, 100 mg/kg) was −78 % Change, the “Average Tumor Size Endpoint (% Change)” value ([4]; Study 3150772607, SKOV-3, IP b.i.d. 10 days, 25 mg/kg) was −74 % Change and the “Average Tumor Size Endpoint (% Change)” value ([4]; Study 3150772607, SKOV-3, IP b.i.d. 10 days, 50 mg/kg) was −87 % Change. For the same molecule, the “Average Tumor Size Endpoint (% Change)” value ([4]; Study 3150772607, SKOV-3, IP b.i.d. 10 days, 150 mg/kg) was −83 % Change and the “Average Tumor Size Endpoint (% Change)” value [5] was −59 % Change.
